This test deals with fully phosphorylated, active Mouse ERK2 protein (Mus musculus (Mouse), UniProt P63085). Kind of test: Active ERK2 (aERK) IMAP assay. The test is classed as biochemical. The settings on record: IMAP fluorescence polarization; 30 μM ATP; 30 minute pre-incubation. Background: Polarisation of emitted light reports the rotation of a fluorescent probe.
Sequence of fully phosphorylated, active Mouse ERK2 protein (P63085 whole entry): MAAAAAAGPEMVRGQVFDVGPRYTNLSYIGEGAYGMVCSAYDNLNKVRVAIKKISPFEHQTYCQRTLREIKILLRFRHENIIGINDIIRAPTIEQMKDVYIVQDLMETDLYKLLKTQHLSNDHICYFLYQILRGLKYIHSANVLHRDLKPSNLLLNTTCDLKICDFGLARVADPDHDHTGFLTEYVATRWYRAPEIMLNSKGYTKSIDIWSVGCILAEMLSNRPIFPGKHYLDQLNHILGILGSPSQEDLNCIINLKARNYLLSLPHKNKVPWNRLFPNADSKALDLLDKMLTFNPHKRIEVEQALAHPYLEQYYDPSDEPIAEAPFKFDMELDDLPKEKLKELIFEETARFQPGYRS
The term IC50 denotes the concentration that gives 50% inhibition. A low value points to greater potency in that assay. Regarding `CC(C)Oc1ccc(-c2n[nH]c3ccc(C(=O)N[C@@H]4CCC[C@](O)(Cc5c(F)cccc5F)C4)cc23)cn1` [compound 18, N-[3(S)-[(2,6-difluorophenyl)methyl]-3-hydroxy-1(R)-cyclohexyl]-3-[6-(1-methylethoxy)-3-pyridinyl]-1H-indazole-5-carboxamide], it took 0.14 µM to reach half-maximal inhibition (IC50).
Under `Cn1cc2cc(-c3n[nH]c4ccc(C(=O)N[C@@H]5CCC[C@](O)(Cc6c(F)cccc6F)C5)cc34)ccc2n1` [compound 19, N-[3(S)-[(2,6-difluorophenyl)methyl]-3-hydroxy-1(R)-cyclohexyl]-3-(2-methyl-2H-indazol-5-yl)-1H-indazole-5-carboxamide] stands 0.0121 µM; under `O=C(N[C@@H]1CCC[C@](O)(Cc2c(F)cccc2F)C1)c1ccc2[nH]nc(-c3ccc4ncsc4c3)c2c1` [compound 20, 3-(6-benzothiazolyl)-N-[3(S)-[(2,6-difluorophenyl)methyl]-3-hydroxy-1(R)-cyclohexyl]-1H-indazole-5-carboxamide], 0.0339 µM; under `Cc1nc2ccc(-c3n[nH]c4ccc(C(=O)N[C@@H]5CCC[C@](O)(Cc6c(F)cccc6F)C5)cc34)cn2n1` [compound 21, N-[3-(S)-[(2,6-difluorophenyl)methyl]-3-hydroxy-1(R)-cyclohexyl]-3-(2-methyl[1,2,4]triazolo[1,5-a]pyridin-6-yl)-1H-indazole-5-carboxamide], 0.0209 µM.
For `COc1cccc(F)c1C[C@@]1(O)CCC[C@@H](NC(=O)c2ccc3[nH]nc(-c4ccnc(C)c4)c3c2)C1` [compound 22, N-[3(S)-[(2-fluoro-6-methoxyphenyl)methyl]-3-hydroxy-1(R)-cyclohexyl]-3-(2-methyl-4-pyridinyl)-1H-indazole-5-carboxamide] the value was 0.002 µM.
In turn, `COc1cccc(F)c1C[C@@]1(O)CCC[C@@H](NC(=O)c2ccc3[nH]nc(-c4ccc5nccn5c4)c3c2)C1` [compound 23, N-[3(S)-[(2-fluoro-6-methoxyphenyl)methyl]-3-hydroxy-1(R)-cyclohexyl]-3-imidazo[1,2-a]pyridin-6-yl-1H-indazole-5-carboxamide] displayed an IC50 of 0.0022 µM.
For `COc1cccc(F)c1C[C@@]1(O)CCC[C@@H](NC(=O)c2ccc3[nH]nc(-c4ccc5nc(C)sc5c4)c3c2)C1` [compound 24, N-[3(S)-[(2-fluoro-6-methoxyphenyl)methyl]-3-hydroxy-1(R)-cyclohexyl]-3-(2-methyl-6-benzothiazolyl)-1H-indazole-5-carboxamide] the value was 0.0089 µM; for `COc1cccc(F)c1C[C@@]1(O)CCC[C@@H](NC(=O)c2ccc3[nH]nc(-c4ccnc(OC(C)C)c4)c3c2)C1` [compound 25, N-[3(S)-[(2-fluoro-6-methoxyphenyl)methyl]-3-hydroxy-1(R)-cyclohexyl]-3-[2-(1-methylethoxy)-4-pyridinyl]-1H-indazole-5-carboxamide], 0.333 µM.
For `COc1cccc(F)c1C[C@@]1(O)CCC[C@@H](NC(=O)c2ccc3[nH]nc(-c4ccc(OC(C)C)cc4)c3c2)C1` [compound 26, N-[3(S)-[(2-fluoro-6-methoxyphenyl)methyl]-3-hydroxy-1(R)-cyclohexyl]-3-[4-(1-methylethoxy)phenyl]-1H-indazole-5-carboxamide] the value was 0.079 µM; for `Cc1cc(-c2n[nH]c3ccc(C(=O)NC4CCCC(Oc5c(C)cccc5C)C4)cc23)ccn1` (centres unmarked) [compound 31, N-[3-(2,6-dimethylphenoxy)cyclohexyl]-3-(2-methyl-4-pyridinyl)-1H-indazole-5-carboxamide], 0.469 µM; for `Cc1cc(-c2n[nH]c3ccc(C(=O)NC4CCCC(Oc5c(F)cccc5F)C4)cc23)ccn1` (centres unmarked) [compound 32, N-[3-(2,6-difluorophenoxy)cyclohexyl]-3-(2-methyl-4-pyridinyl)-1H-indazole-5-carboxamide], 0.573 µM.
For `Cc1cc(-c2n[nH]c3ccc(C(=O)NC4CCCC(Oc5ccccc5F)C4)cc23)ccn1` (centres unmarked) [compound 33, N-[3-(2-fluorophenoxy)cyclohexyl]-3-(2-methyl-4-pyridinyl)-1H-indazole-5-carboxamide] the value was 0.114 µM.
The molecule `Cc1cc(-c2n[nH]c3ccc(C(=O)NN4CCCC(Oc5ccccc5Cl)C4)cc23)ccn1` (centres unmarked) [compound 36, N-[3-(2-chlorophenoxy)-1-piperidinyl]-3-(2-methyl-4-pyridinyl)-1H-indazole-5-carboxamide] gave an IC50 of 0.0404 µM.
Under `COC1(Cc2ccccc2F)CCCC(NC(=O)c2ccc3[nH]nc(-c4ccnc(C)c4)c3c2)C1` (centres unmarked) [compound 39, N-[3-[(2-fluorophenyl)methyl]-3-methoxycyclohexyl]-3-(2-methyl-4-pyridinyl)-1H-indazole-5-carboxamide] stands 0.0285 µM; under `COC1(Cc2ccccc2F)CCCC(NC(=O)c2ccc3[nH]nc(-c4ccnc(C)c4)c3c2)C1` (centres unmarked) [compound 40, N-[3-[(2-fluorophenyl)methyl]-3-methoxycyclohexyl]-3-(2-methyl-4-pyridinyl)-1H-indazole-5-carboxamide], 0.205 µM; under `Cc1cc(-c2n[nH]c3ccc(C(=O)NC4CCCC(CO)(Oc5ccccc5)C4)cc23)ccn1` (centres unmarked) [compound 41, N-[3-(hydroxymethyl)-3-phenoxycyclohexyl]-3-(2-methyl-4-pyridinyl)-1H-indazole-5-carboxamide], 0.0989 µM.
On to `Cc1cc(-c2n[nH]c3ccc(C(=O)NC4CCCC(Oc5cccc(F)c5)(C(N)=O)C4)cc23)ccn1` (centres unmarked) [compound 42, N-[3-(aminocarbonyl)-3-(3-fluorophenoxy)cyclohexyl]-3-(2-methyl-4-pyridinyl)-1H-indazole-5-carboxamide], for which the IC50 turned out to be 0.0112 µM.
With `Cc1cc(-c2n[nH]c3ccc(C(=O)NC4CCCC(O)(C(F)(F)c5ccccc5)C4)cc23)ccn1` (centres unmarked) [compound 46, N-[3-(difluorophenylmethyl)-3-hydroxycyclohexyl]-3-(2-methyl-4-pyridinyl)-1H-indazole-5-carboxamide], the IC50 was 0.63 µM.
For `Cc1cc(-c2n[nH]c3ccc(C(=O)NC4CCCC(O)(C(=O)c5ccccc5)C4)cc23)ccn1` (centres unmarked) [compound 47, N-(3-benzoyl-3-hydroxycyclohexyl)-3-(2-methyl-4-pyridinyl)-1H-indazole-5-carboxamide] the value was 0.577 µM; for `Cc1cc(-c2n[nH]c3ccc(C(=O)NC4CCCC(O)(C(F)(F)c5ccccc5)C4)cc23)ccn1` (centres unmarked) [compound 48, N-[3-(difluorophenylmethyl)-3-hydroxycyclohexyl]-3-(2-methyl-4-pyridinyl)-1H-indazole-5-carboxamide], 0.106 µM.
For `Cc1cc(-c2n[nH]c3ccc(C(=O)NC4CCCC(O)(C(O)c5ccccc5)C4)cc23)ccn1` (centres unmarked) [compound 49, N-[3-hydroxy-3-(hydroxyphenylmethyl)cyclohex-yl]-3-(2-methyl-4-pyridinyl)-1H-indazole-5-carboxamide (diasterimer 1)] the value was 0.025 µM; for `Cc1cc(-c2n[nH]c3ccc(C(=O)NC4CCCC(O)(C(O)c5ccccc5)C4)cc23)ccn1` (centres unmarked) [compound 50, N-[3-hydroxy-3-(hydroxyphenylmethyl)cyclohex-yl]-3-(2-methyl-4-pyridinyl)-1H-indazole-5-carboxamide (diasterimer 2)], 0.0475 µM; for `Cc1cc(-c2n[nH]c3ccc(C(=O)NC4CCCC(O)(C(O)c5ccccc5)C4)cc23)ccn1` (centres unmarked) [compound 51, N-[3-hydroxy-3-(hydroxyphenylmethyl)cyclohex-yl]-3-(2-methyl-4-pyridinyl)-1H-indazole-5-carboxamide (diasterimer 3)], 0.204 µM.
On to `Cc1cc(-c2n[nH]c3ccc(C(=O)NC4CCCC(O)(C(O)c5ccccc5)C4)cc23)ccn1` (centres unmarked) [compound 52, N-[3-hydroxy-3-(hydroxyphenylmethyl)cyclohex-yl]-3-(2-methyl-4-pyridinyl)-1H-indazole-5-carboxamide (diasterimer 4)], for which inhibition was half-maximal at 0.294 µM (IC50).
For `Cc1cc(-c2n[nH]c3ccc(C(=O)NC4CCCC(O)(C(=O)c5ccccc5)C4)cc23)ccn1` (centres unmarked) [compound 53, N-(3-benzoyl-3-hydroxycyclohexyl)-3-(2-methyl-4-pyridinyl)-1H-indazole-5-carboxamide] the value was 0.258 µM.
For `Cc1cc(-c2n[nH]c3ccc(C(=O)N[C@@H]4CCC[C@](O)(Cn5ncc6ccccc65)C4)cc23)ccn1` [compound 65, N-[3(R)-hydroxy-3-(1H-indazol-1-ylmethyl)-1(R)-cyclohexyl]-3-(2-methyl-4-pyridinyl)-1H-indazole-5-carboxamide] the value was 0.988 µM; for `Cc1cc(-c2n[nH]c3ccc(C(=O)N[C@@H]4CCC[C@@](O)(Cn5ncc6ccccc65)C4)cc23)ccn1` [compound 66, N-[3(S)-hydroxy-3-(1H-indazol-1-ylmethyl)-1(R)-cyclohexyl]-3-(2-methyl-4-pyridinyl)-1H-indazole-5-carboxamide], 0.007 µM; for `Cc1cc(-c2n[nH]c3ccc(C(=O)N[C@@H]4CCC[C@@](O)(Cn5c(C(F)(F)F)nc6ccccc65)C4)cc23)ccn1` [compound 68], 0.821 µM.
Take `Cc1cc(-c2n[nH]c3ccc(C(=O)N[C@H]4CCC[C@@](O)(Cn5c(C)nc6ccccc65)C4)cc23)ccn1` [compound 69, N-[trans-3-hydroxy-3-[(2-methyl-1H-benzimidazol-1-yl)methyl]cyclohexyl]-3-(2-methyl-4-pyridinyl)-H-indazole-5-carboxamide]: it took 0.053 µM to reach half-maximal inhibition (IC50).
Under `Cc1cc(-c2n[nH]c3ccc(C(=O)N[C@H]4CCC[C@](O)(Cn5c(C)nc6ccccc65)C4)cc23)ccn1` [compound 70] stands 0.332 µM; under `O=C(N[C@@H]1CCC[C@@](O)(Cn2ncc3ncccc32)C1)c1ccc2[nH]nc(-c3ccc4nccn4c3)c2c1` [compound 86, N-[cis-3-hydroxy-3-(1H-pyrazolo[4,3-b]pyridN-1-ylmethyl)cyclohexyl]-3-imidazo[1,2-a]pyridiN-6-yl-1H-indazole-5-carboxamide], 1 µM; under `Cn1cc2cc(-c3n[nH]c4ccc(C(=O)NC5CCCC(Cn6ccnc6)C5)cc34)ccc2n1` (centres unmarked) [compound 108, N-[3-(1H-imidazol-1-ylmethyl)cyclohexyl]-3-(2-methyl-2H-indazol-5-yl)-1H-indazole-5-carboxamide], 0.0293 µM.

The record behind these values is patent US9351965B2, “Indazole derivatives useful as ERK inhibitors” (Merck Sharp & Dohme Corp., priority 2010, dated 2016).
